This is an account of results in ChEMBL document CHEMBL4808176, “Optimization of Truncated Glucagon Peptides to Achieve Selective, High Potency, Full Antagonists” (J Med Chem, 2021).

Activity calls are given as the source filed them. The rule behind the calls is not given here. Peptide text beside a SMILES is read from it. * marks the point of attachment. Carboxymethyl = O=C(O)C*; CH2CH2COOH = O=C(O)CC*

Assay [1] has as its target T1, Glucagon receptor (Homo sapiens, UniProt P47871). Put plainly: Partial antagonist activity at human GCGR expressed in HEK293 cells assessed as inhibition of glucogon-induced cAMP production. Type of assay: functional, cell-based. The following applies: filed as antagonist.
Assay [2] deals with T1, Glucagon receptor. The assay is described as follows: Antagonist activity at human GCGR expressed in HEK293 cells assessed as inhibition of glucogon-induced cAMP production. The assay is classed as functional, cell-based.

T1 sequence (P47871 whole entry): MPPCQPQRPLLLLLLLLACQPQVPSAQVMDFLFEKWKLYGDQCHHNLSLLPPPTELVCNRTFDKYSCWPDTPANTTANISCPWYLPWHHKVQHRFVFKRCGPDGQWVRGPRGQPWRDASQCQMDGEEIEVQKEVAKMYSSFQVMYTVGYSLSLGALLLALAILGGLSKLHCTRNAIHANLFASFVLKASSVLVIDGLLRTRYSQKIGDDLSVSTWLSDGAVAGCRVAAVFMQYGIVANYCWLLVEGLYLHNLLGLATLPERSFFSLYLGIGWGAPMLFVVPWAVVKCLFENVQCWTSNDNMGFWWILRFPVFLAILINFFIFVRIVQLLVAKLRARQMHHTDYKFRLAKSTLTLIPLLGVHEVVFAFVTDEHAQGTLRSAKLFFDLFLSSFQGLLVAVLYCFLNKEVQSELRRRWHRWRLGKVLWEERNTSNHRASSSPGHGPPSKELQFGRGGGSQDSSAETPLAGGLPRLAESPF

With `CSCC[C@H](NC(=O)[C@H](CC(C)C)NC(=O)[C@H](Cc1c[nH]c2ccccc12)NC(=O)[C@H](CCC(N)=O)NC(=O)[C@@H](NC(=O)[C@H](Cc1ccccc1)NC(=O)[C@H](CC(=O)O)NC(=O)[C@H](CCC(N)=O)NC(=O)[C@H](C)NC(=O)[C@H](CCCNC(=N)N)NC(=O)[C@H](CCCNC(=N)N)NC(=O)[C@H](CO)NC(=O)[C@H](CC(=O)O)NC(=O)[C@H](CC(C)C)NC(=O)[C@H](Cc1ccc(O)cc1)NC(=O)[C@H](CCCCN)NC(=O)[C@H](CO)NC(=O)[C@H](Cc1ccc(O)cc1)NC(=O)[C@H](CCCC(=O)O)NC(=O)[C@H](CO)NC(=O)[C@@H](NC(=O)[C@H](Cc1ccccc1)NC(=O)[C@@H](NC(=O)CNC(=O)[C@H](CCC(N)=O)NC(=O)[C@@H](N)CO)[C@@H](C)O)[C@@H](C)O)C(C)C)C(=O)N[C@@H](CC(N)=O)C(=O)N[C@H](C(N)=O)[C@@H](C)O`, in assay [1], the result was Active.

For the compound `CSCC[C@H](NC(=O)[C@H](CC(C)C)NC(=O)[C@H](Cc1c[nH]c2ccccc12)NC(=O)[C@H](CCC(N)=O)NC(=O)[C@@H](NC(=O)[C@H](Cc1ccccc1)NC(=O)[C@H](CC(=O)O)NC(=O)[C@H](CCC(N)=O)NC(=O)[C@H](C)NC(=O)[C@H](CCCNC(=N)N)NC(=O)[C@H](CCCNC(=N)N)NC(=O)[C@H](CO)NC(=O)[C@H](CC(=O)O)NC(=O)[C@H](CC(C)C)NC(=O)[C@H](Cc1ccc(O)cc1)NC(=O)[C@H](CCCCN)NC(=O)[C@H](CO)NC(=O)[C@H](Cc1ccc(O)cc1)NC(=O)[C@H](CSCC(=O)O)NC(=O)[C@H](CO)NC(=O)[C@@H](NC(=O)[C@H](Cc1ccccc1)NC(=O)[C@@H](NC(=O)CNC(=O)[C@H](CCC(N)=O)NC(=O)[C@@H](N)CO)[C@@H](C)O)[C@@H](C)O)C(C)C)C(=O)N[C@@H](CC(N)=O)C(=O)N[C@H](C(N)=O)[C@@H](C)O`, the result in assay [1] was Active.

The term IC50 denotes the midpoint of a concentration-inhibition curve. Consider `CSCC[C@H](NC(=O)[C@H](CC(C)C)NC(=O)[C@H](Cc1c[nH]c2ccccc12)NC(=O)[C@H](CCC(N)=O)NC(=O)[C@@H](NC(=O)[C@H](Cc1ccccc1)NC(=O)[C@H](CC(=O)O)NC(=O)[C@H](CCC(N)=O)NC(=O)[C@H](C)NC(=O)[C@H](CCCNC(=N)N)NC(=O)[C@H](CCCNC(=N)N)NC(=O)[C@H](CO)NC(=O)[C@H](CC(=O)O)NC(=O)[C@H](CC(C)C)NC(=O)[C@H](Cc1ccc(O)cc1)NC(=O)[C@H](CCCCN)NC(=O)[C@H](CO)NC(=O)[C@H](Cc1ccc(O)cc1)NC(=O)[C@H](CSCCC(=O)O)NC(=O)[C@H](CO)NC(=O)[C@@H](NC(=O)[C@@H](N)Cc1ccccc1)[C@@H](C)O)C(C)C)C(=O)N[C@@H](CC(N)=O)C(=O)N[C@H](C(N)=O)[C@@H](C)O` (H-FTSC(CH2CH2COOH)YSKYLDSRRAQDFVQWLMNT-NH2), for which, in assay [2], the IC50 turned out to be 81.8 nM.

On to `CSCC[C@H](NC(=O)[C@H](CC(C)C)NC(=O)[C@H](Cc1c[nH]c2ccccc12)NC(=O)[C@H](CCC(N)=O)NC(=O)[C@@H](NC(=O)[C@H](Cc1ccccc1)NC(=O)[C@H](CC(=O)O)NC(=O)[C@H](CCC(N)=O)NC(=O)[C@H](C)NC(=O)[C@H](CCCNC(=N)N)NC(=O)[C@H](CCCNC(=N)N)NC(=O)[C@H](CO)NC(=O)[C@H](CC(=O)O)NC(=O)[C@H](CC(C)C)NC(=O)[C@H](Cc1ccc(O)cc1)NC(=O)[C@H](CCCCN)NC(=O)[C@H](CO)NC(=O)[C@H](Cc1ccc(O)cc1)NC(=O)[C@H](CSCC(=O)O)NC(=O)[C@H](CO)NC(=O)[C@@H](NC(=O)[C@@H](N)Cc1ccccc1)[C@@H](C)O)C(C)C)C(=O)N[C@@H](CC(N)=O)C(=O)N[C@H](C(N)=O)[C@@H](C)O` (H-FTSC(Carboxymethyl)YSKYLDSRRAQDFVQWLMNT-NH2), for which the IC50 in assay [2] was determined as 71.4 nM.

With H-GTFTSEYSKYLDSRRAQDFVQWLMNT-NH2, the IC50 in assay [2] turned out to be 275 nM.
